From publication PMC9312958, “A Novel and Selective Dopamine Transporter Inhibitor, (S)-MK-26, Promotes Hippocampal Synaptic Plasticity and Restores Effort-Related Motivational Dysfunctions” (Biomolecules, 2022)

Tests used:
[1] = molecular target: T1, hNET (Homo sapiens, UniProt P23975); assay: Uptake inhibition assay in HEK293 cells expressing hNET; type: cell-based
T1 construct: expressed in transfected cells
Procedure: (§1) Human embryonic kidney 293 cells (HEK293 cells) were cultivated in Dulbecco’s Modified Eagle Medium (DMEM), containing 10% heat-inactivated fetal calf serum (FCS; 100 mL/L), streptomycin (100 μg/100 mL) and penicillin ([…]). Geneticin (50 μg/mL) was added to select cells stably expressing the human isoforms of dopamine, norepinephrine and serotonin transporter (hDAT, hNET, and hSERT, respectively) as described earlier. Cell lines were maintained in culture in humidified atmosphere (37 °C, 5% CO2), and passaged when reached 80–90% confluency. Cells expressing the desired transporter were seeded the day before the experiment (40,000 cells per well) or two days before the experiments (20,000 cells per well) onto poly-D-lysine (PDL)-coated 96-well plates.
(§2) Uptake inhibition experiments were carried out as reported previously. Ninety-six-well plates containing hDAT-, hNET- or hSERT-expressing cells were washed with Krebs-HEPES buffer (KHB; 25 mM HEPES, 120 mM NaCl, 5 mM KCl, 1.2 mM CaCl2, and 1.2 mM MgSO4 and 5 mM D-glucose, pH = 7.3). Cells were then preincubated with increasing concentrations of the compound diluted in KHB for 6 min. Following the pre-incubation of the cells with the compound, the tritiated substrate (hDAT: 0.15 μM [^3H]DA; hNET: 0.05 μM [^3H]MPP^+; hSERT: 0.1 μM [^3H]5-HT) was added to the wells. The uptake was terminated by removal of tritiated substrate and by washing the cells with ice-cold KHB after 1 min (for hDAT and hSERT) or 3 min (for hNET). Thereafter, 200 μL of Ultima Gold^TM XR scintillation cocktail (PerkinElmer, MA, USA) was added, the plates were shaken and the radioactivity accumulated into the cells determined in a Wal-lac 1450 MicroBeta TriLux Liquid Scintillation Counter & Lumi (GMI, Ramsey, MN, USA). Non- specific tritiated substrate uptake was measured in the presence of 100 μM cocaine (for hDAT and hNET) or 10 μM paroxetine (for hSERT), and subtracted from the data. Uptake in the presence of test drugs was normalized to the uptake in the presence of the vehicle.

[2] = test system: adult male Sprague Dawley rats; assay: FR5/chow feeding choice task; type: in vivo, rat; conditions: 1.0 mg/kg TBZ plus vehicle vs vehicle plus vehicle
Procedure: Pharmacological agents: (S)-MK-26 was obtained from the Lubec Laboratory (University of Vienna, Austria) and dissolved in dimethyl sulfoxide (DMSO) (10%), Tween 80 (15%), and 0.9% saline (75%). The DMSO/Tween 80/saline mixture was administered as the vehicle control. The dose range was selected as 3.75–45.0 mg/kg based on its DAT affinity and pilot studies. It was administered 30 min before testing. TBZ (9,10-dimethoxy3-(2-methylpropyl)-1,3,4,6,7, 11b hexahydrobenzo[a]quinolizin2-one) was obtained from Tocris Bioscience (Ellisville, MO) and was dissolved in DMSO (20%) and 0.9% saline (80%) and was titrated with 1.0 N HCl until the drug was dissolved at a pH of 4.0–4.5. The DMSO/saline solution with equal amounts of HCl was administered as the vehicle control. The selected dose was 1.0mg/kg based on the previous research from our laboratory. It was administered 120 min prior to testing.
FR5/chow feeding choice task: A total of 8 adult male Sprague Dawley rats (Envigo Sprague Dawley, Indianapolis, IN, USA; weights 275–299 g upon arrival) were pair-housed in a colony maintained at 23 °C, with a 12 h light/dark cycle (lights on 07:00). Rats were food deprived to 85% of their free-feeding body weight with modest growth throughout the experiment and water was available ad libitum in their home cages. All the animal protocols were approved by the University of Connecticut Institutional Animal Care and Use Committee, and the experiments were completed according to National Institutes of Health guidelines.
Behavioral sessions were conducted in operant chambers (28 × 23 × 23 cm^3; Med Associates, Fairfax, VT, USA) with 30 min sessions 5 days/week. Rats were initially trained to lever press on magazine training for 3 days, followed by an FR1 schedule for 3 days (high-carbohydrate 45-mg pellets, Bio-Serv, Frenchtown, NJ, USA), and then moved to the FR5 schedule. After 5 weeks of training on the FR5 schedule, lab chow was introduced as the concurrently available choice food (Laboratory Diet, 5P00 Prolab RMH 3000, Purina Mills, St. Louis, MO, USA; typically 15–20 g). At the end of each session, rats were immediately removed from the chambers. The number of lever pressing was recorded and the amount of consumed chow was calculated by weighing the remaining food, including spillage. Rats were trained on the FR5/chow feeding choice task for 5 weeks, after which drug testing began.
To test the effects of (S)-MK-26 on FR5/Chow feeding choice task, trained rats were administered either with TBZ (1.0 mg/kg) or vehicle 120 min before testing, and (S)-MK-26 also with doses of 15.0, 30.0, 45.0 mg/kg or vehicle 30 min before testing, via intraperitoneal (IP) injections on drug testing days. A repeated-measures design was utilized where each rat received each drug treatment in a randomly varied order, once per week. The following five treatment combinations were given: TBZ vehicle + (S)-MK-26 vehicle; 1.0 mg/kg TBZ + (S)-MK-26 vehicle; 1.0 mg/kg TBZ + 15.0 mg/kg (S)-MK-26; 1.0 mg/kg TBZ + 30.0 mg/kg (S)-MK-26; 1.0 mg/kg TBZ + 45.0 mg/kg (S)-MK-26. Next, to see if the effects of lower doses, the following four treatment combinations were given in a repeated measure design: TBZ vehicle + (S)-MK-26 vehicle; 1.0 mg/kg TBZ + (S)-MK-26 vehicle; 1.0 mg/kg TBZ + 3.75 mg/kg (S)-MK-26; 1.0 mg/kg TBZ + 7.5 mg/kg (S)-MK-26.

[3] = molecular target: T2, hDAT (Homo sapiens, UniProt Q01959); assay: Uptake inhibition assay in HEK293 cells expressing hDAT; type: cell-based
T2 construct: expressed in transfected cells
T2 sequence (Q01959 whole entry): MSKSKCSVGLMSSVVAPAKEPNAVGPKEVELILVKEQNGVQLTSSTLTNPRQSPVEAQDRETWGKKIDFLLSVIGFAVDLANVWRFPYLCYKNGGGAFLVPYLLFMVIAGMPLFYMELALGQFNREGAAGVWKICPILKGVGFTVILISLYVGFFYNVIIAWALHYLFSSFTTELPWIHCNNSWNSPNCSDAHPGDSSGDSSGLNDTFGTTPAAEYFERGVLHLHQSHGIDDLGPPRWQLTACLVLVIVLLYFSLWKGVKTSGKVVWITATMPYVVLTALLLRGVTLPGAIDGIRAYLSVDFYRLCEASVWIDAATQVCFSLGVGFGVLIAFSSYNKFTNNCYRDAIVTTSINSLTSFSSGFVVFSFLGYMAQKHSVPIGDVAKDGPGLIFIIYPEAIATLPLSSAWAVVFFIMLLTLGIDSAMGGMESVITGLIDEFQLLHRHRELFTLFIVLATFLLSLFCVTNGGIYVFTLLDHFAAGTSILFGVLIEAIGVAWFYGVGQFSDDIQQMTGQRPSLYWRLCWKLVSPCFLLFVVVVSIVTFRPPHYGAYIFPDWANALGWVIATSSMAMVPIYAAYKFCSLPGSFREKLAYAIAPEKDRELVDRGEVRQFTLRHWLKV
Procedure: as §1, §2

[4] = molecular target: T3, hSERT (Homo sapiens, UniProt P31645); assay: Uptake inhibition assay in HEK293 cells expressing hSERT; type: cell-based
T3 construct: expressed in transfected cells
T3 sequence (P31645 whole entry): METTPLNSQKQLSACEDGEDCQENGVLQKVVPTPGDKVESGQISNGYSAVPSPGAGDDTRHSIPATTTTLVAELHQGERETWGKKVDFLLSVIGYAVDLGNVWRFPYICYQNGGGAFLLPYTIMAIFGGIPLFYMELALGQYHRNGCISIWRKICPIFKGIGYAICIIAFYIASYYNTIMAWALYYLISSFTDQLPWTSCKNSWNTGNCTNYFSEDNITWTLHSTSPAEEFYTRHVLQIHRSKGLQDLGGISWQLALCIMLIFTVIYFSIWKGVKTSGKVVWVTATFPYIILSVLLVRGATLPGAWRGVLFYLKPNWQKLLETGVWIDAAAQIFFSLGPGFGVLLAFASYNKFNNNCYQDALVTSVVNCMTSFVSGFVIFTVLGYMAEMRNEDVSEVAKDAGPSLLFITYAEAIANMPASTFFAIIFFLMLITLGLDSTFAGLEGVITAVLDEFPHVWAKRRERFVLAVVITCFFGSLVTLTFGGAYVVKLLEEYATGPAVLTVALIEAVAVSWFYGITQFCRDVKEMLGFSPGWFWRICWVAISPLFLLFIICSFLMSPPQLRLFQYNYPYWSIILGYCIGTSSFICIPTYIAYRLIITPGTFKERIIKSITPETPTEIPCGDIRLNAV
Procedure: as §1
Uptake inhibition experiments were carried out as reported previously. […] Thereafter, 200 μL of Ultima Gold^TM XR scintillation cocktail (PerkinElmer, MA, USA) was added, the plates were shaken and the radioactivity accumulated into the cells determined in a Wal-lac 1450 MicroBeta TriLux Liquid Scintillation Counter & Lumi (GMI, Ramsey, MN, USA). Non- specific tritiated substrate uptake was measured in the presence of 100 μM cocaine (for hDAT and hNET) or 10 μM paroxetine (for hSERT), and subtracted from the data. […]

[5] = test system: DAT; design: method as in PMID 16885432; conditions: read-out: IC50, DAT-inhibiting power; cited from earlier work

T1 sequence (P23975 whole entry): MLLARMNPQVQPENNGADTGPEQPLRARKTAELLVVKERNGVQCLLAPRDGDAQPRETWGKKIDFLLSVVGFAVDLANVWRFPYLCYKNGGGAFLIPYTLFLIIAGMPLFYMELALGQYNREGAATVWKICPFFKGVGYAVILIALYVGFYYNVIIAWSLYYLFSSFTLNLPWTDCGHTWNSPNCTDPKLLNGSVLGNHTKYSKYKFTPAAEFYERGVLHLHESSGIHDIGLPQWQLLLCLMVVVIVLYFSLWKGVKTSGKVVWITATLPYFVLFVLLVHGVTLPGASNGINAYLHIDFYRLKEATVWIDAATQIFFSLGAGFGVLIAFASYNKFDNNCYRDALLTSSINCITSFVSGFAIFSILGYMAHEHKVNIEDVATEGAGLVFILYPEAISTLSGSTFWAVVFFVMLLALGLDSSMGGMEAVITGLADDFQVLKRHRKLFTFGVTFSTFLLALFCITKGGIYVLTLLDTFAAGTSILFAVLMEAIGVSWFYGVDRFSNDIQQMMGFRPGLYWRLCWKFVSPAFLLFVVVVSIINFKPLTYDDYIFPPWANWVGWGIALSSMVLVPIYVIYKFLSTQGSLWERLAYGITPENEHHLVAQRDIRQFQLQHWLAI

NC(=O)C[S@@+]([O-])C(c1ccccc1)c1ccccc1 [(R)-Modafinil, reference compound]
IC50 [1]: 127 µM

COc1cc2c(cc1OC)C1CC(=O)C(CC(C)C)CN1CC2 (stereo not shown) [TBZ, 9,10-dimethoxy3-(2-methylpropyl)-1,3,4,6,7, 11b hexahydrobenzo[a]quinolizin2-one, reference compound]
effect on chow intake [2]: increasing chow intake
effect on lever pressing [2]: decreasing lever pressing

[O-][S@+](Cc1cncs1)C(c1cccc(Cl)c1)c1cccc(Cl)c1 [(R)-MK-26, (R)-5-(((bis(3-chlorophenyl)methyl)sulphinyl)methyl)thiazole]
IC50 [3]: 36.3 µM
IC50 [1]: 2160 µM
IC50 [4]: > 1000 µM
